pIC50: −log10 of the molar value.
Target: TRKA (Homo sapiens (Human), UniProt P04629)
Assay: Isolated TRK enzyme assay (HTRF KinEASE-TK), TRKA
Assay type: biochemical
Conditions: read-out: Trka enzyme (IC50)

TRKA, sequence (P04629 441-796): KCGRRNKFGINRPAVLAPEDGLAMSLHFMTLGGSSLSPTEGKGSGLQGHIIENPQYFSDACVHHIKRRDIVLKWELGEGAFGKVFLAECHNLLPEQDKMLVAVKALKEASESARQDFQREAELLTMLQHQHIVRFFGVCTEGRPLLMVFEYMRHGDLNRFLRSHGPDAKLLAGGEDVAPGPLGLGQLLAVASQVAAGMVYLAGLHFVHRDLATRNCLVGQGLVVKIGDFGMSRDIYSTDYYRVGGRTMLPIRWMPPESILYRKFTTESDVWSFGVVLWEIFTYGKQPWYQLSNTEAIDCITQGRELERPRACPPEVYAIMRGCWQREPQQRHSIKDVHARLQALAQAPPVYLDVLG

pIC50 | SMILES
5.51 | COc1ccc(CC(=O)Nc2cncc(C(=O)c3cn(C)c4ncncc34)c2)cc1 [Example 181, 2-(4-methoxyphenyl)-N-{5-[(7-methyl-7H-pyrrolo[2,3-d]pyrimidin-5-yl)carbonyl]pyridin-3-yl}acetamide]
5.59 | CC(C)n1cc(C(=O)c2cncc(NC(=O)c3cnc4ccnn4c3)c2)c2cncnc21 [Example 415, Pyrazolo[1,5-a]pyrimidine-6-carboxylic acid [5-(7-isopropyl-7H-pyrrolo[2,3-d]pyrimidine-5-carbonyl)-pyridin-3-yl]-amide]
5.91 | CC(C)n1cc(C(=O)c2cncc(NC(=O)c3ncn4c3CCC4)c2)c2cncnc21 [Example 403, 6,7-Dihydro-5H-pyrrolo[1,2-c]imidazole-1-carboxylic acid [5-(7-isopropyl-7H-pyrrolo[2,3-d]pyrimidine-5-carbonyl)-pyridin-3-yl]-amide]
6.93 | CC(C)n1cc(C(=O)c2cncc(NC(=O)c3cc4sccc4cn3)c2)c2cncnc21 [Example 404, Thieno[3,2-c]pyridine-6-carboxylic acid [5-(7-isopropyl-7H-pyrrolo[2,3-d]pyrimidine-5-carbonyl)-pyridin-3-yl]-amide]
5.50 | Cc1cc(C(=O)Nc2cncc(C(=O)c3cn(C(C)C)c4ncncc34)c2)n(CC(F)(F)F)n1 [Example 450, 5-Methyl-2-(2,2,2-trifluoro-ethyl)-2H-pyrazole-3-carboxylic acid [5-(7-isopropyl-7H-pyrrolo[2,3-d]pyrimidine-5-carbonyl)-pyridin-3-yl]-amide]
5.87 | Cc1cnc(C(=O)Nc2cncc(C(=O)c3cn(C(C)C)c4ncncc34)c2)cn1 [Example 393, 5-Methyl-pyrazine-2-carboxylic acid[5-(7-isopropyl-7H-pyrrolo[2,3-d]pyrimidine-5-carbonyl)-pyridin-3-yl]-amide]
7.03 | CC(C)n1cc(C(=O)c2cncc(NC(=O)C(CO)c3ccc(Cl)cc3)c2)c2cncnc21 (stereo not drawn) [Example 521, 2-(4-Chloro-phenyl)-3-hydroxy-N-[5-(7-isopropyl-7H-pyrrolo[2,3-d]pyrimidine-5-carbonyl)-pyridin-3-yl]-propionamide]
7.92 | CC(C)(CO)n1cc(C(=O)c2cncc(NC(=O)Cc3ccc(F)c(F)c3)c2)c2cnc(N)nc21 [Example 568, N-{5-[2-Amino-7-(2-hydroxy-1,1-dimethyl-ethyl)-7H-pyrrolo[2,3-d]pyrimidine-5-carbonyl]-pyridin-3-yl}-2-(3,4-difluoro-phenyl)-acetamide]
5.37 | Cn1cc(C(=O)c2cncc(NC(=O)C3Cc4ccccc4C3)c2)c2cncnc21 [Example 337, N-{5-[(7-methyl-7H-pyrrolo[2,3-d]pyrimidin-5-yl)carbonyl]pyridin-3-yl}indane-2-carboxamide]
6.76 | Cn1cc(C(=O)c2cncc(NC(=O)Cc3cccc(C(F)(F)F)c3F)c2)c2cncnc21 [Example 192, 2-[2-fluoro-3-(trifluoromethyl)phenyl]-N-{5-[(7-methyl-7H-pyrrolo[2,3-d]pyrimidin-5-yl)carbonyl]pyridin-3-yl}acetamide]
8.39 | COCC(C)(C)n1cc(C(=O)c2cncc(NC(=O)Cc3ccc(F)cc3)c2)c2cncnc21 [Example 539, 2-(4-Fluoro-phenyl)-N-{5-[7-(2-methoxy-1,1-dimethyl-ethyl)-7H-pyrrolo[2,3-d]pyrimidine-5-carbonyl]-pyridin-3-yl}-acetamide]
8.12 | COCC(C)(C)n1cc(C(=O)c2cncc(NC(=O)Cn3cc(C4CC4)nn3)c2)c2cnc(N)nc21 [Example 552, N-{5-[2-Amino-7-(2-methoxy-1,1-dimethyl-ethyl)-7H-pyrrolo[2,3-d]pyrimidine-5-carbonyl]-pyridin-3-yl}-2-(4-cyclopropyl-[1,2,3]triazol-1-yl)-acetamide]
6.12 | Cc1cn2cc(CC(=O)Nc3cncc(C(=O)c4cn(C(C)C)c5ncncc45)c3)nc2s1 [Example 368, N-[5-(7-Isopropyl-7H-pyrrolo[2,3-d]pyrimidine-5-carbonyl)-pyridin-3-yl]-2-(2-methyl-imidazo[2,1-b]thiazol-6-yl)-acetamide]
6.56 | CC(CO)(CO)n1cc(C(=O)c2cncc(NC(=O)Cc3ccc(C#N)cc3)c2)c2cncnc21 [Example 232, 2-(4-Cyanophenyl)-N-[5-({7-[2-hydroxy-1-(hydroxymethyl)-1-methylethyl]-7H-pyrrolo[2,3-d]pyrimidin-5-yl}carbonyl)pyridin-3-yl]acetamide]
6.73 | Cn1cc(C(=O)c2cncc(NC(=O)Cc3ccc(Cl)cc3)c2)c2cncnc21 [Example 319, 2-(4-chlorophenyl)-N-{5-[(7-methyl-7H-pyrrolo[2,3-d]pyrimidin-5-yl)carbonyl]pyridin-3-yl}acetamide]
7.85 | CC1(n2cc(C(=O)c3cncc(NC(=O)c4cccc(C(F)(F)F)c4)c3)c3cncnc32)COC1 [Example 574, N-{5-[7-(3-Methyl-oxetan-3-yl)-7H-pyrrolo[2,3-d]pyrimidine-5-carbonyl]-pyridin-3-yl}-3-trifluoromethyl-benzamide]
7.91 | CC(C)n1cc(C(=O)c2cncc(NC(=O)Cn3cc4ccccc4n3)c2)c2cncnc21 [Example 93, 2-(2H-indazol-2-yl)-N-{5-[(7-isopropyl-7H-pyrrolo[2,3-d]pyrimidin-5-yl)carbonyl]pyridin-3-yl}acetamide]
5.79 | CC(C)n1cc(C(=O)c2cncc(NC(=O)c3cn(C)nc3C(F)(F)F)c2)c2cncnc21 [Example 405, 1-Methyl-3-trifluoromethyl-1H-pyrazole-4-carboxylic acid [5-(7-isopropyl-7H-pyrrolo[2,3-d]pyrimidine-5-carbonyl)-pyridin-3-yl]-amide]
6.82 | CN(C(=O)Cc1ccc(F)cc1)c1cncc(C(=O)c2cn(C(C)(C)C)c3ncncc23)c1 [Example 540, N-[5-(7-tert-Butyl-7H-pyrrolo[2,3-d]pyrimidine-5-carbonyl)-pyridin-3-yl]-2-(4-fluoro-phenyl)-N-methyl-acetamide]
6.41 | CC(C)n1cc(C(=O)c2cncc(NC(=O)Cc3ccc4[nH]cnc4c3)c2)c2cncnc21 [Example 80, 2-(1H-benzimidazol-5-yl)-N-{5-[(7-isopropyl-7H-pyrrolo[2,3-d]pyrimidin-5-yl)carbonyl]pyridin-3-yl}acetamide]
8.26 | CCc1ccnc(C(=O)Nc2cncc(C(=O)c3cn(C(C)C)c4ncncc34)c2)c1 [Example 445, 4-Ethyl-pyridine-2-carboxylic acid [5-(7-isopropyl-7H-pyrrolo[2,3-d]pyrimidine-5-carbonyl)-pyridin-3-yl]-amide]
7.23 | Cc1ccc2[nH]cc(CC(=O)Nc3cncc(C(=O)c4cn(C(C)C)c5ncncc45)c3)c2c1 [Example 141, N-{5-[(7-isopropyl-7H-pyrrolo[2,3-d]pyrimidin-5-yl)carbonyl]pyridin-3-yl}-2-(5-methyl-1H-indol-3-yl)acetamide]
5.45 | Cc1c(-c2ccccc2)cnn1CC(=O)Nc1cncc(C(=O)c2cn(C(C)C)c3ncncc23)c1 [Example 149, N-{5-[(7-isopropyl-7H-pyrrolo[2,3-d]pyrimidin-5-yl)carbonyl]pyridin-3-yl}-2-(5-methyl-4-phenyl-1H-pyrazol-1-yl)acetamide]
5.01 | CC(C)n1cc(C(=O)c2cncc(NC(=O)c3cncnc3)c2)c2cncnc21 [Example 410, Pyrimidine-5-carboxylic acid [5-(7-isopropyl-7H-pyrrolo[2,3-d]pyrimidine-5-carbonyl)-pyridin-3-yl]-amide]

— patent US8846698B2, “Pyrrolo[2,3-d]pyrimidine tropomysin-related kinase inhibitors” (Pfizer Limited, priority 2011, dated 2014)
